Laboratory results from patent US20220009906A1, “ISOINDOLIN-1-ONE DERIVATIVES USEFUL AS GRK2 INHIBITORS” (priority 2020, published 2022).

How the values were obtained:
[1] = target: T1, GRK2 (Homo sapiens, UniProt P25098); experiment: GRK2 Transcreener Assay; assay type: biochemical; conditions: Biological Example 2 GRK2 Transcreener IC50 (μM), 10 nM GRK2; 10 μM ATP; 150 μM peptide substrate; multiple measurements listed individually
T1 sequence (P25098 1-689): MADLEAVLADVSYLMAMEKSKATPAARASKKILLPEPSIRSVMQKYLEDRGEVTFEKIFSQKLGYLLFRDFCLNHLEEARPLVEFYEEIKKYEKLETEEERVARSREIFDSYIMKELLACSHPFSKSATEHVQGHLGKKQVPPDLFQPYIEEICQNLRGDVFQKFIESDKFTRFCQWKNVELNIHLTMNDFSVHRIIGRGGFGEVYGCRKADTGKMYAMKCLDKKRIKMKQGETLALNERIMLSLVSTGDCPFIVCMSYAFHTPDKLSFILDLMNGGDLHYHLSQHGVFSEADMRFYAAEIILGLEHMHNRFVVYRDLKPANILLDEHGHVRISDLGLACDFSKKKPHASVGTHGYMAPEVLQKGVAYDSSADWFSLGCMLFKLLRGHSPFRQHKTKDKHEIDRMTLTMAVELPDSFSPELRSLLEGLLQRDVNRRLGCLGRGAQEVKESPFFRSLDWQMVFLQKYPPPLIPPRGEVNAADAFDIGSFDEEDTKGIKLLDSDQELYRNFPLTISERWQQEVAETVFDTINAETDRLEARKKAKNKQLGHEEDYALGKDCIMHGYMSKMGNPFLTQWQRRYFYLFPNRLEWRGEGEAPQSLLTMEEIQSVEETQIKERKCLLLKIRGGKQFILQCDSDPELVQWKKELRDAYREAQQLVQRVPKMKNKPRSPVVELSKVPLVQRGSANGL
Method: Positive and negative control wells received an equal volume of DMSO. The final DMSO concentration in the assay is 1%.
The plate was placed in centrifuge equipped with a spin-bucket rotor and spun for 1 min at 1000 rpm.
GRK2 enzymatic reactions were initiated with the addition of 2 μL/well of 50 nM GRK2 in assay buffer. Plates were centrifuged for 1 min at 1000 rpm. For negative control wells, the order of reagent addition was reversed: 10 μL/well ADP detection mix (see below) was added first, followed by the addition of 2 μL/well of the GRK2 solution. Reaction mixtures were incubated at ambient temperature for 2 hours. Final concentrations of reagents in the assays were as follows:
Following incubation, the reactions were quenched with 10 μL/well of the Transcreener ADP detection mix. […] The plates were then centrifuged for 1 min at 1000 rpm.
Fluorescence polarization values of the reaction mixtures were read on a Safire plate reader after a 60 min incubation at ambient temperature. Excitation wavelength=590 nm; emission wavelength=650 nm.
The fluorescence polarization data were converted to % activity as follows:
% activity=(sample−NC)/(PC−NC)*100
where NC is the mean of negative control (ADP detection mix added prior to GRK2 addition), and PC is the mean of positive control (GRK2 reaction without inhibitor). IC50 values are determined from a 4-parameter fit, using the following equation:
Y=Bottom+(Top−Bottom)/(1+10^((Log IC50−X)*Hill slope))
where X=log10 of the compound concentration.

[2] = target: T1, GRK2; experiment: hGRK2 LANCE Ultra In Vitro Assay; assay type: biochemical
How it was run: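 TR-FRET kinase assay with 10 nM GRK2 preincubated 30 min with compound, then 200 nM ULight-peptide and 30 or 600 μM ATP in HEPES pH 7.5, 10 mM MgCl2, 1% DMSO; 120 or 60 min at ambient temperature respectively.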

[3] = Biological Example 1 GRK2 Lancer IC50 (μM), 10 nM GRK2, 30 or 600 μM ATP (not stated which), multiple measurements listed individually

Structure (SMILES) | IC50 [1] | IC50 [2] | IC50 [2, 3]
COc1cccc([C@@H](C)N2Cc3ccc(-c4cn[nH]c4)cc3C2=O)c1 [Compound 13, (R)-2-(1-(3-methoxyphenyl)ethyl)-6-(1H-pyrazol-4-yl)isoindolin-1-one] | < 0.005 µM | < 0.005 µM | 
COc1cccc(CN2C(=O)c3cc(-c4cn[nH]c4)ccc3C2CC#N)c1 (centres unmarked) [Compound 15] | < 0.005 µM |  | 0.005 µM
CC(C)NC(=O)c1cccc(CN2Cc3ccc(-c4cn[nH]c4)cc3C2=O)c1 [Compound 19, N-isopropyl-3-[[1-oxo-6-(1H-pyrazol-4-yl)isoindolin-2-yl]methyl]benzamide] | < 0.005 µM |  | < 0.005 µM
CNC(=O)c1ccc(-c2ccc3c(c2)C(=O)N(Cc2cccc(OC)c2)C3)cn1 [Compound 23, 5-(2-(3-methoxybenzyl)-3-oxoisoindolin-5-yl)-N-methylpicolinamide] | > 50 µM |  | 
C[C@H](c1cccc2ccccc12)N1Cc2ccc(-c3cn[nH]c3)cc2C1=O [Compound 24] | 1.46 µM |  | 
Cc1cccc([C@@H](C)N2Cc3ccc(-c4cn[nH]c4)cc3C2=O)n1 [Compound 25] | 0.546 µM |  | 
CC(C)(C)OC(=O)c1cccc(CN2Cc3ccc(-c4cn[nH]c4)cc3C2=O)c1 [Compound 164] | 0.305 µM |  | 
COC(=O)c1cccc([C@@H](C)N2Cc3ccc(-c4cn[nH]c4)cc3C2=O)c1 [Compound 165] | > 50 µM |  | 
